# From BindingDB's records for doi:10.1016/j.bmc.2011.05.013 (University of Auckland, 2011)
# Test: Inhibition of recombinant perforin mediated lysis of human Jurkat cells pre-incubated for 30 mins with perforin followed by incubation with Jurkat cells at 37 degC for 4 hrs in presence of 0.1% BSA by [51Cr] release assay
row,Structure (SMILES),IC50 [µM]
1,CCNC(=O)c1ccc(-c2c(C#N)c(N)n3c(nc4ccccc43)c2C#N)cc1,3.16
2,CNC(=O)c1ccc(-c2c(C#N)c(N)n3c(nc4ccccc43)c2C#N)cc1,1.04
3,Cc1cc2nc3c(C#N)c(-c4ccc(OCC(N)=O)cc4)c(C#N)c(N)n3c2cc1C,3.53
4,N#Cc1c(-c2ccc(OCC(N)=O)cc2)c(C#N)c2nc3ccccc3n2c1N,5.19
5,N#Cc1c(-c2ccc(OCCO)cc2)c(C#N)c2nc3ccccc3n2c1N,2.87
6,N#Cc1c(-c2ccc(C(=O)NCCCO)cc2)c(C#N)c2nc3ccccc3n2c1N,4.18
7,CN(C)C(=O)COc1ccc(-c2c(C#N)c(N)n3c(nc4ccccc43)c2C#N)cc1,6.89
8,N#Cc1c(-c2ccc(C(N)=O)cc2)c(C#N)c2nc3ccccc3n2c1N,3
9,N#Cc1c(-c2ccc(OCC(N)=O)cc2)c(C#N)c2nc3c(Cl)cccc3n2c1N,5.67
10,Cc1ccc2c(nc3c(C#N)c(-c4ccc(OCC(N)=O)cc4)c(C#N)c(N)n32)c1C,5.21
11,N#Cc1c(-c2ccc(C(=O)NCCO)cc2)c(C#N)c2nc3ccccc3n2c1N,3.08
12,CCNC(=O)COc1ccc(-c2c(C#N)c(N)n3c(nc4ccccc43)c2C#N)cc1,7.44
13,N#Cc1c(-c2ccc(C(=O)NCC(O)CO)cc2)c(C#N)c2nc3ccccc3n2c1N (configuration not stated),3.24
14,CC(C)NC(=O)COc1ccc(-c2c(C#N)c(N)n3c(nc4ccccc43)c2C#N)cc1,13.2
15,CNC(=O)COc1ccc(-c2c(C#N)c(N)n3c(nc4ccccc43)c2C#N)cc1,4.56
16,CCCNC(=O)COc1ccc(-c2c(C#N)c(N)n3c(nc4ccccc43)c2C#N)cc1,13.9
17,Cc1cc2nc(C(C#N)=Cc3ccc(OCC(N)=O)cc3)[nH]c2cc1C,5.14
18,N#Cc1c(-c2ccc(OCC(=O)NCCO)cc2)c(C#N)c2nc3ccccc3n2c1N,8.25
19,N#Cc1c(-c2ccc(C(=O)NCCN3CCOCC3)cc2)c(C#N)c2nc3ccccc3n2c1N,10

row,Structure (SMILES),IC50 [µM]
1,COc1cccc2c1nc1c(C#N)c(-c3ccc(OCC(N)=O)cc3)c(C#N)c(N)n12,7.49
2,Cc1cccc2c1nc1c(C#N)c(-c3ccc(OCC(N)=O)cc3)c(C#N)c(N)n12,6.87
3,N#CC(=Cc1ccc(OCC(N)=O)cc1)c1nc2cccc(Cl)c2[nH]1,6.72
4,CNC(=O)CCc1ccc(-c2c(C#N)c(N)n3c(nc4ccccc43)c2C#N)cc1,> 20
5,CN(C)C(=O)CCc1ccc(-c2c(C#N)c(N)n3c(nc4ccccc43)c2C#N)cc1,> 20
6,CC(O)CNC(=O)COc1ccc(-c2c(C#N)c(N)n3c(nc4ccccc43)c2C#N)cc1 (configuration not stated),> 20
7,N#Cc1c(-c2ccc(OCC(=O)NCCCO)cc2)c(C#N)c2nc3ccccc3n2c1N,> 20
8,N#Cc1c(-c2ccc(OCC(=O)NCC(O)CO)cc2)c(C#N)c2nc3ccccc3n2c1N (configuration not stated),> 20
9,CN(C)C(=O)c1ccc(-c2c(C#N)c(N)n3c(nc4ccccc43)c2C#N)cc1,> 20
10,CN(C)CCNC(=O)c1ccc(-c2c(C#N)c(N)n3c(nc4ccccc43)c2C#N)cc1,> 20
11,N#CC(=Cc1ccc(OCC(N)=O)cc1)c1nc2ccccc2[nH]1,> 20
12,COc1cccc2[nH]c(C(C#N)=Cc3ccc(OCC(N)=O)cc3)nc12,> 20
13,Cc1ccc2nc(C(C#N)=Cc3ccc(OCC(N)=O)cc3)[nH]c2c1C,> 20
14,N#Cc1c(-c2ccc(OCC(=O)NCCc3ccncc3)cc2)c(C#N)c2nc3ccccc3n2c1N,10
15,N#Cc1c(-c2ccc(C(=O)NCCc3ccncc3)cc2)c(C#N)c2nc3ccccc3n2c1N,10.5
16,Cc1cccc2[nH]c(C(C#N)=Cc3ccc(OCC(N)=O)cc3)nc12,> 20
17,CC(O)CNC(=O)c1ccc(-c2c(C#N)c(N)n3c(nc4ccccc43)c2C#N)cc1 (configuration not stated),5.55
18,N#Cc1c(-c2ccc(C(=O)NCCN3CCCCC3)cc2)c(C#N)c2nc3ccccc3n2c1N,> 20
